The subject of the experiment is Dog PRP (platelet aggregation). The experiment in a line: In-Vitro Platelet Aggregation in PRP (ADP-induced). The conditions noted are these: Canis lupus familiaris; dog platelet-rich plasma; ADP 50 um final concentration; 1 minute preincubation at 37° C.; read-out: Dog PRP IC50 or % Inh. It is filed as cell-based. On the procedure:
In-Vitro Platelet Aggregation in PRP
Healthy male or female dogs were fasted for 8 hours prior to drawing blood; then 30 ml whole blood was collected using a butterfly needle and 30 cc plastic syringe with 3 ml of 0.129M buffered sodium citrate (3.8%). The syringe was rotated carefully as blood was drawn to mix the citrate. Platelet-rich plasma (PRP) was prepared by centrifugation at 975×g for 3.17 minutes at room temperature allowing the centrifuge to coast to a stop without braking. The PRP was removed from the blood with a plastic pipette and placed in a plastic capped, 50 mL Corning conical sterile centrifuge tube which was held at room temperature. Platelet poor plasma (PPP) was prepared by centrifuging the remaining blood at 2000×g for 15 minutes at room temperature allowing the centrifuge to coast to a stop without braking. The PRP was adjusted with PPP to a count of 2-3×10^8 platelets per mL. 400 uL of the PRP preparation and 50 uL of the compounds solution to be tested or saline were preincubated for 1 minute at 37° C. in a […].). 50 uL of adenosine 5' diphosphate (ADP) (50 um final concentration) was added to the cuvettes and the aggregation was monitored for 1 minute. […] Results are calculated as follows: Percent of control=[(maximal OD minus initial OD of compound) divided by (maximal OD minus initial OD of control saline)]×100. […]

The structures appear in SMILES notation.

The source of these data is US5614539A, “Urea compounds which are useful as platelet aggregation inhibitors” (G. D. Searle & Co., priority 1995, dated 1997).

As for `N=C(N)NCCCCCCCNC(=O)NC(CC(=O)O)c1cccnc1` (stereo not drawn) [Example 2, β-[[[[7-[[aminoiminomethyl]amino]heptyl]amino]carbonyl]amino]-3-pyridinepropanoic acid], the IC50 (commonly the point on the concentration scale where inhibition reaches its midpoint) worked out at 0.8 µM.
With `N=C(N)NCCCCCCCNC(=O)N[C@@H](CC(=O)O)C(=O)N[C@@H](Cc1ccccc1)C(=O)O` [Example 4, N-[N-[[[[7-[[aminoiminomethyl]amino]heptyl]amino]carbonyl]amino]-L-α-aspartyl]-L-phenylalanine], the IC50 is 1.9 µM.
